Measured values published in patent US12227496B2 (BRISTOL-MYERS SQUIBB COMPANY, priority 2019, dated 2025).

Molecular target: T1, human FXR (Homo sapiens, UniProt Q96RI1)
T1 construct: expressed in transfected cells; host or cells: HEK293 cells stably carrying a 5xGal4-response-element firefly luciferase reporter, transiently transfected with pcDNA3.1-Gal4-FXR
T1 sequence (Q96RI1 262-486 limits assumed): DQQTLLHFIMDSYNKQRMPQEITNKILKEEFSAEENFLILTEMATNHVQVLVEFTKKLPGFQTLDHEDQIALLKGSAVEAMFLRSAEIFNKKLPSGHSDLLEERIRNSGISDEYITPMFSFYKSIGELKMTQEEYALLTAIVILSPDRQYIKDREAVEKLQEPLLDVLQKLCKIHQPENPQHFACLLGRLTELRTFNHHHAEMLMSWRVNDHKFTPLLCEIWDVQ
Experiment: transient human FXR/Gal4-luciferase reporter assay
Assay type: cell-based
Details: Gal4-hFXR LBD fusion, luciferase reporter in HEK293 cells; response relative to 8 μM GW-4064
Method: A Gal4-hFXR fusion construct reporter system was used as the primary assay to characterize compound activity. A construct including 5 copies of the Gal4 promoter response element upstream of a firefly luciferase reporter cDNA was stably expressed in HEK293 cells. This reporter cell line was maintained in Dulbecco's Modified Eagle's medium (DMEM; Gibco) supplemented with 1% penicillin-streptomycin (P/S) solution, 500 μg/mL Zeocin and 10% charcoal/dextran-treated fetal bovine serum (cs-FBS) at 37° C. in a humidified 5% CO2 atmosphere. […] The day prior to transfection, the reporter cells in culture are detached from the plate with trypsin and plated into a T75 flask at a sufficient density to achieve approximately 90% confluence the next morning. […] The mixture is further diluted with 10 mL of a solution comprised of DMEM, 10% cs-FBS, and 1% P/S immediately prior to transferring to the cells. The maintenance culture media is aspirated from the cells and the final transfection mixture is added before the cells are incubated overnight at 37° C. in a humidified 5% CO2 atmosphere. This protocol can be scaled up, and the transiently transfected cells can be cryopreserved in an assay-ready format. For compound testing, 100 nL of the compounds (serial dilutions in DMSO) are dispensed with an Echo acoustic dispenser (Labcyte) into the wells of a Corning/Costar clear bottom 384-well white plate. The transfected cells are harvested, counted, and diluted such that 10-25,000 cells in 25 μL are plated into each well of the 384-well compound assay plate. The compound-treated cells are incubated overnight at 37° C. in a humidified 5% CO2 atmosphere. The next morning 25 μL of Steady-Glo (Promega) are added to each well of the plate, the mixture is incubated for 15 min. with shaking, and luminescence is measured on an Envision (Perkin Elmer) plate reader.

| Structure (SMILES) | EC50 [nM] |
| --- | --- |
| Cn1nc(C2CC2)cc1C12CCC(CN(C(=O)C3CCC(F)(F)CC3)c3cccc(-c4cc(C5CC5)on4)c3)(CC1)CC2 [Example 163, N-((4-(3-cyclopropyl-1-methyl-1H-pyrazol-5-yl)bicyclo[2.2.2]octan-1-yl)methyl)-N-(3-(5-cyclopropylisoxazol-3-yl)phenyl)-4,4-difluorocyclohexane-1-carboxamide] | 130 |
| COC(=O)C1CC1c1cccc(N(CC23CCC(c4nc(C)no4)(CC2)CC3)C(=O)C2CCCCC2)c1 (single isomer, unassigned) [Example 101, Methyl 2-(3-(N-((4-(3-methyl-1,2,4-oxadiazol-5-yl)bicyclo[2.2.2]octan-1-yl)methyl)cyclohexanecarboxamido)phenyl)cyclopropane-1-carboxylate] | 245 |
| O=C(C1CCOCC1)N(CC12CCC(c3nc(C4CC4)no3)(CC1)CC2)c1cccc(-c2ccnc(OC3CC3)n2)c1 [Example 86, N-(3-(2-cyclopropoxypyrimidin-4-yl)phenyl)-N-((4-(3-cyclopropyl-1,2,4-oxadiazol-5-yl)bicyclo[2.2.2]octan-1-yl)methyl)tetrahydro-2H-pyran-4-carboxamide] | 2470 |
| O=C(C1CCOCC1)N(CC12CCC(c3nc(C4CC4)no3)(CC1)CC2)c1cccc(-c2nc(C3CC3)no2)c1 [Example 15, N-((4-(3-cyclopropyl-1,2,4-oxadiazol-5-yl)bicyclo[2.2.2]octan-1-yl)methyl)-N-(3-(3-cyclopropyl-1,2,4-oxadiazol-5-yl)phenyl)tetrahydro-2H-pyran-4-carboxamide] | 134 |
| COC(=O)C1CC1c1cccc(N(CC23CCC(c4nc(C)no4)(CC2)CC3)C(=O)C2CCCCC2)c1 (single isomer, unassigned) [Example 102, Methyl 2-(3-(N-((4-(3-methyl-1,2,4-oxadiazol-5-yl)bicyclo[2.2.2]octan-1-yl)methyl)cyclohexanecarboxamido)phenyl)cyclopropane-1-carboxylate] | 518 |
| CC(F)(F)c1nc(C23CCC(CN(C(=O)C4CCC(O)(C(F)(F)F)CC4)c4cccc(-c5cc(C6CC6)on5)c4)(CC2)CC3)no1 (stereo not drawn) [Example 157, N-(3-(5-cyclopropylisoxazol-3-yl)phenyl)-N-((4-(5-(1,1-difluoroethyl)-1,2,4-oxadiazol-3-yl)bicyclo[2.2.2]octan-1-yl)methyl)-4-hydroxy-4-(trifluoromethyl)cyclohexane-1-carboxamide] | 242 |
| COCc1nc(-c2cccc(N(CC34CCC(c5nc(C6CC6)no5)(CC3)CC4)C(=O)C3CCN(C(=O)OC(C)(C)C)CC3)c2)cs1 [Example 48, tert-butyl 4-(((4-(3-cyclopropyl-1,2,4-oxadiazol-5-yl)bicyclo[2.2.2]octan-1-yl)methyl)(3-(2-(methoxymethyl)thiazol-4-yl)phenyl)carbamoyl)piperidine-1-carboxylate] | 856 |
| CCOc1ncc(-c2cccc(N(CC34CCC(c5noc(C(C)(C)F)n5)(CC3)CC4)C(=O)c3ccc(OC)cc3)c2)cn1 [Example 143, N-(3-(2-ethoxypyrimidin-5-yl)phenyl)-N-((4-(5-(2-fluoropropan-2-yl)-1,2,4-oxadiazol-3-yl)bicyclo[2.2.2]octan-1-yl)methyl)-4-methoxybenzamide] | 202 |
| COc1cc(-c2cccc(N(CC34CCC(C(=O)NC5CC5)(CC3)CC4)C(=O)C3CCCCC3)c2)ccn1 [Example 98, N-cyclopropyl-4-((N-(3-(2-methoxypyridin-4-yl)phenyl)cyclohexanecarboxamido)methyl)bicyclo[2.2.2]octane-1-carboxamide] | 399 |
| CC(F)(F)c1nc(C23CCC(CN(C(=O)C4CCC(F)(F)CC4)c4cccc(-c5cc(C6CC6)no5)c4)(CC2)CC3)no1 [Example 150, N-(3-(3-cyclopropylisoxazol-5-yl)phenyl)-N-((4-(5-(1,1-difluoroethyl)-1,2,4-oxadiazol-3-yl)bicyclo[2.2.2]octan-1-yl)methyl)-4,4-difluorocyclohexane-1-carboxamide] | 38 |
| CCc1noc(-c2cccc(N(C(=O)C3CCCCC3)C(C)C34CCC(c5nc(C)no5)(CC3)CC4)c2)n1 (single isomer, unassigned) [Example 70, N-(3-(3-ethyl-1,2,4-oxadiazol-5-yl)phenyl)-N-(1-(4-(3-methyl-1,2,4-oxadiazol-5-yl)bicyclo[2.2.2]octan-1-yl)ethyl)cyclohexanecarboxamide] | 1500 |
| CCOc1ccc(-c2cccc(N(CC34CCC(c5nc(C(C)(C)C)no5)(CC3)CC4)C(=O)C3CCC(OC)CC3)c2)cc1 (single isomer, unassigned) [Example 145, N-((4-(3-(tert-butyl)-1,2,4-oxadiazol-5-yl)bicyclo[2.2.2]octan-1-yl)methyl)-N-(4′-ethoxy-[1,1′-biphenyl]-3-yl)-4-methoxycyclohexane-1-carboxamide] | 303 |
| CCCc1ncc(-c2cccc(N(CC34CCC(c5nc(C6CC6)no5)(CC3)CC4)C(=O)C3CCOCC3)c2)o1 [Example 29, N-((4-(3-cyclopropyl-1,2,4-oxadiazol-5-yl)bicyclo[2.2.2]octan-1-yl)methyl)-N-(3-(2-propyloxazol-5-yl)phenyl)tetrahydro-2H-pyran-4-carboxamide] | 53 |
| CCOc1ccc(-c2cc(N(CC34CCC(c5noc(C(C)(F)F)n5)(CC3)CC4)C(=O)C3CCC(O)(C(F)(F)F)CC3)ccc2F)cc1 (single isomer, unassigned) [Example 164, N-((4-(5-(1,1-difluoroethyl)-1,2,4-oxadiazol-3-yl)bicyclo[2.2.2]octan-1-yl)methyl)-N-(4′-ethoxy-6-fluoro-[1,1′-biphenyl]-3-yl)-4-hydroxy-4-(trifluoromethyl)cyclohexane-1-carboxamide] | 271 |
| O=C(C1CCCCC1)N(CC12CCC(c3nc(C4CC4)no3)(CC1)CC2)c1cccc(-c2nc(C(F)F)co2)c1 [Example 37, N-((4-(3-cyclopropyl-1,2,4-oxadiazol-5-yl)bicyclo[2.2.2]octan-1-yl)methyl)-N-(3-(4-(difluoromethyl)oxazol-2-yl)phenyl)cyclohexanecarboxamide] | 166 |
| CN1CCC(C(=O)N(CC23CCC(c4nc(C5CC5)no4)(CC2)CC3)c2cccc(-c3nc(C4CC4)no3)c2)CC1 [Example 17, N-((4-(3-cyclopropyl-1,2,4-oxadiazol-5-yl)bicyclo[2.2.2]octan-1-yl)methyl)-N-(3-(3-cyclopropyl-1,2,4-oxadiazol-5-yl)phenyl)-1-methylpiperidine-4-carboxamide] | 3020 |
| CC(F)(F)c1nc(C23CCC(CN(C(=O)C4CCC(F)(F)CC4)c4cccc(-c5nc(C6CC6)no5)c4)(CC2)CC3)no1 [Example 112, N-(3-(3-cyclopropyl-1,2,4-oxadiazol-5-yl)phenyl)-N-((4-(5-(1,1-difluoroethyl)-1,2,4-oxadiazol-3-yl)bicyclo[2.2.2]octan-1-yl)methyl)-4,4-difluorocyclohexane-1-carboxamide] | 142 |
| CC(C)(C)c1noc(C23CCC(CN(C(=O)C4CCOCC4)c4cc(F)cc(-c5nc(C6CC6)no5)c4)(CC2)CC3)n1 [Example 115, N-((4-(3-(tert-butyl)-1,2,4-oxadiazol-5-yl)bicyclo[2.2.2]octan-1-yl)methyl)-N-(3-(3-cyclopropyl-1,2,4-oxadiazol-5-yl)-5-fluorophenyl)tetrahydro-2H-pyran-4-carboxamide] | 83 |
| CCOc1ncc(-c2cccc(N(CC34CCC(c5nc(C(C)(C)C)no5)(CC3)CC4)C(=O)C3CCOCC3)c2)cn1 [Example 87, N-((4-(3-(tert-butyl)-1,2,4-oxadiazol-5-yl)bicyclo[2.2.2]octan-1-yl)methyl)-N-(3-(2-ethoxypyrimidin-5-yl)phenyl)tetrahydro-2H-pyran-4-carboxamide] | 274 |
| CCOc1ncc(-c2cc(N(CC34CCC(c5noc(C(C)(F)F)n5)(CC3)CC4)C(=O)C3CCC(F)(F)CC3)ccc2F)cn1 [Example 106, N-((4-(5-(1,1-difluoroethyl)-1,2,4-oxadiazol-3-yl)bicyclo[2.2.2]octan-1-yl)methyl)-N-(3-(2-ethoxypyrimidin-5-yl)-4-fluorophenyl)-4,4-difluorocyclohexane-1-carboxamide] | 406 |
| CC(F)(F)c1nc(C23CCC(CN(C(=O)C4CCOCC4)c4cccc(-c5ccc(OC(F)F)cc5)c4)(CC2)CC3)no1 [Example 109, N-((4-(5-(1,1-difluoroethyl)-1,2,4-oxadiazol-3-yl)bicyclo[2.2.2]octan-1-yl)methyl)-N-(4′-(difluoromethoxy)-[1,1′-biphenyl]-3-yl)tetrahydro-2H-pyran-4-carboxamide] | 50 |
